Peptide text beside a SMILES is read from it. * marks the point of attachment. Cbz = O=C(OCc1ccccc1)*; CH2F = FC*
Experiments:
HEK293T cells [1] = test: UVC-irradiation-induced apoptosis in HEK293T cells, Hoechst staining; type: cell-based; conditions: for effect on UVC-irradiation-induced cell death: HEK293T cells transfected with Ku70 construct, 200 J/m^2 UVC, 24 hours
Description: HEK293T cells (10^6 cells) were transfected with 0.5 μg PEGFP and 1.0 μg pCMV-2B (Vector), pCMV-2B-Ku70 wt (Ku70 wt), or pCMV-2B-Ku70536-609 (Ku70536-609). One day following transfection, cells were exposed to 200 J/m^2 of UVC-irradiation. After 24 hours, apoptotic cells were counted as described in FIG. 1.
One day following transfection, except in the control group (Control), cells were exposed to UVC-irradiation in the absence (UV or UV+Ku70) or the presence of 50 uM z-VAD-fmk (UV+z-VAD).
HEK293T cells, HeLa cells, and mouse embryonic fibroblasts (MEF) were cultured in DMEM supplemented with 10% fetal bovine serum (FBS).

Hela cells = test: STS-induced apoptosis in Hela cells, Hoechst staining of apoptotic nuclei; type: cell-based, human; conditions: for percentages of apoptotic cells: Hela cells, one day; for effect on STS-induced apoptosis: HeLa cells transfected with Ku70 construct, 24 hours
Description: Hela cells (10^6 cells) were transfected with 0.5 μg pEGFP and 1.0 μg pCMV-2B (Vector), pCMV-2B-Ku70 (Ku70 wt), pCMV-2B-Ku701-535 (Ku701-535), or pCMV-2B-Ku70536-609 (Ku70536-609). One day following transfection, cells were treated with 200 nM STS and the number of apoptotic cells was counted as described in FIG. 1 after 24 hours of STS treatment.
Hela cells (10^6 cells) were treated with 200 nM STS in the absence (STS) or presence of z-VAD-fmk (STS+z-VAD).

HEK293T cells [2] = test: Bax-induced apoptosis in HEK293T cells (pcDNA3-Bax transfection); type: cell-based; conditions: HEK293T cells co-transfected with pcDNA3-Bax and Ku70 construct, 24 hours
Description: 10^6 cells were transfected with 1.0 μg of pcDNA3 (Control) or pcDNA3-Bax (Bax) together with 0.5, 1.0, or 2.0 μg of pCMV-2B-Ku70 wt (Ku70 wt) or pcDNA3-Myc-XIAP (XIAP). In “Bax+Vector” group, 1.0 μg pcDNA3-Bax and 2 ug of pCMV-2B were used, respectively (Control and Bax+Vector). All the cells were also co-transfected with 0.5 μg pEGFP for the marking of transfected cells. Apoptosis in the transfected cells was analyzed 24 hours following transfection with Hoechst dye staining of the nucleus as described in Experimental Procedure. […] 10^6 cells were transfected with 1.0 μg pcDNA3-Bax and 2.0 μg pCMV-2B (Bax+Vector), pCMV-2B-Ku70 wt (Bax+Ku70 wt), or pcDNA3-Myc-XIAP (Bax+XIAP). […] Apoptosis in the transfected cells was analyzed at 24 hours (Control) or the indicated time points following transfection. […] After 24 hours, apoptotic cells were counted as described in FIG. 1B. […] The number of apoptotic cells was determined as described in FIG. 1B. […] Apoptosis in the transfected cells was analyzed at the indicated periods following transfection as described in FIG. 1C.
HEK293T cells, HeLa cells, and mouse embryonic fibroblasts (MEF) were cultured in DMEM supplemented with 10% fetal bovine serum (FBS). […] Apoptosis in the transfected cells were analyzed as follows: Plasmid encoding EGFP (0.5 ug of pEGFP) was transfected to all the groups to mark the transfected cells. […]

Bax [3] = target: T1, Bax (Homo sapiens, UniProt Q07812); test: Co-immunoprecipitation of Flag-tagged Ku70 constructs and Bax; type: binding; conditions: HEK293T cells, Flag-tagged constructs, 50 uM z-VAD-fmk, Chaps-based buffer
T1 construct: expressed in transfected cells; host or cells: HEK293T
T1 sequence (Q07812 whole entry): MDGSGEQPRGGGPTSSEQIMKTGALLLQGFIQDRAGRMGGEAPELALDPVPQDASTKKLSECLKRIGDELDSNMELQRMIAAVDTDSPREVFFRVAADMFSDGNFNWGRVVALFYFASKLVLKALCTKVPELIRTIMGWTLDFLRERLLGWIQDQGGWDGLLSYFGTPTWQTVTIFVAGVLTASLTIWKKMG
Description: Interaction of Ku70 and Bax. […] (FIG. 4D) Co-immunoprecipitation of Flag-tagged-Ku70 and endogenous Bax. HEK293T cells (10^6 cells) were co-transfected with 1.0 μg pcDNA3-Bax and 1.0 μg pCMV-2B-control vector (Flag-tagged firefly luciferase), pCMV-2B-Ku70 wt (Flag-Ku70 wt), pCMV-2B-Ku701-535 (Flag-Ku701-535), pCMV-2B-Ku70496-609 (Flag-Ku70496-609) or pCMV-2B-Ku70536-609 (Flag-Ku70536-609) in the presence of 50 μM z-VAD-fmk. Co-immunoprecipitation was performed as described in FIG. 4C, and Western blot of Bax was done with anti-human Bax polyclonal antibody.
Immunoprecipitation was performed as follows according to the previous methods (Hsu and Youle, 1998, Matsuyama, 1998a). After precleaning of 600 ul of the sample with 50 ul of Protein G-Sepharose at 4° C. for 1 hour, immunoprecipitations were performed by incubating 200 ul of lysates with 20 ul of Protein G-Sepharose preabsorbed with 2 ug of anti-Bax polyclonal antibody or 2 ug of anti-Ku70 monoclonal antibody at 4° C. for 2 hours. After extensive washing in the buffer, beads were boiled in 40 ul of Laemmli buffer and 20 ul of the eluted proteins were subjected to SDS-PAGE immunoblot analysis.

Bax [4] = test: Subcellular localization / mitochondrial translocation of Bax (fractionation, Western blot, confocal); type: cell-based; conditions: HeLa cells 200 nM STS; HEK293T cells UVC 200 J/m^2
Description: FIG. 6A: Subcellular localization of Bax and Ku70. HeLa cells (10^7 cells) were transfected with 10 μg pCMV-2B (Control, STS,) or pCMV-2B-Ku70 (STS+Ku70). One day following transfection, except in the control group (Control), cells were treated by 200 nM STS (STS). One day after STS-treatment, cells were collected and subcellular fractionation was performed as described in Experimental Procedure. The levels of Ku70 (Ku70) and Bax (Bax) in each fraction were analyzed by Western blotting as described in Experimental Procedure. FoF1 ATP synthase subunit α (F1α) and PCNA (PCNA) were used as markers for mitochondrial and nuclear fractions, respectively. HM stands for “Heavy Membrane” fraction containing mitochondria. […] Cytosol fractions (20 μg protein) were separated by SDS-PAGE and analyzed by Western blotting for Ku70 (anti-Ku70 monoclonal antibody, BD-Pharmingen) and β-Tubulin (anti-β-Tubulin monoclonal antibody, BD-Pharmingen) levels. […] MEFs derived from wild-type (Ku70+/+) or Ku70-knockout mice (Ku70−/−) were analyzed as described in FIG. 6A. […] MEFs derived from wild-type (Ku70+/+) or Ku70-deficient (Ku70−/−) mice were treated with STS (200 nM) and cells were analyzed at indicated various periods after treatment as described in FIG. 6A. […]

Du145 cells = test: Apoptosis in Bax-deficient Du145 cells; type: cell-based, human; conditions: Du145, 200 J/m^2 UVC, 24 hours
Description: Du145 cells (10^6 cells) were transfected with 0.5 μg PEGFP and 1.0 μg pCMV-2B (Vector), pcDNA3-Myc-XIAP (XIAP), pCMV-2B-Ku70 wt (Ku70 wt), or pCMV-2B-Ku70536-609 (Ku70536-609). One day following transfection, cells were exposed to 200 J/m^2 of UVC-irradiation. After 24 hours, apoptotic cells were counted as described in FIG. 1.
Apoptosis was induced by pcDNA3-human Bax (Bax-encoding plasmid)-transfection, Staurosporin (STS)-treatment, UVC-irradiation, anti-Fas-antibody-treatment (clone CH11), and human recombinant TRAIL-treatment (BD-Pharmingen). The amount of the plasmids, the concentration of STS, Fas-antibody, and TRAIL, and the energy of UVC-irradiation are as described in the figure legends. Apoptosis in the transfected cells were analyzed as follows: Plasmid encoding EGFP (0.5 ug of pEGFP) was transfected to all the groups to mark the transfected cells. One day following transfection of the plasmids listed in the figure legends or treatment of the cells with staurosporin (STS) or UVC-irradiation, cells were stained with Hoechst dye and cells with apoptotic nuclei were counted in GFP expressing cells under fluorescent microscope as previously reported (Wei, et al., 2001). Each point in the figures showing percentages of apoptosis represents the mean±SE of three experiments.

Bax [5] = test: Mitochondrial translocation of Bax after TRAIL treatment in T98-G and Hep3B cells; type: cell-based, human; conditions: T98G and Hep3B, 100 ng/ml TRAIL, 24 hours
Description: FIG. 14. […] One day following the transfection, cells were treated by etoposide (20 uM). One day after the addition of etoposide into the culture, cells were collected and subcellular fractionation was performed as described in FIG. 9. […] Bax leveles in the samples of the fractions of the cytosol (“Cytosol”) and the heavy membrane (“HM”) were analyzed by Western blotting (middle and lower panels). […] All cells were also co-transfected with the plasmid encoding Green Fluorescent Protein (GFP) (pEGFP plasmid) for the detection of the transfected cells by GFP expression. One day following the transfection, etoposide (20 uM), cisplatin (20 uM), doxorubicin (1 uM), or TRAIL (100 ng/ml) was added to the culture, and cells were culture for 48 hours. The percentages of apoptotic cells were counted in GFP-expressing cells by staining the nucleus with Hochst-dye on day 1 and 2 of the culture. […] T98-G (glioma cell line) and Hep3B (hepatoma cell line) cells were cultured for 24 hours in the absence (“Control”) or the presence (“TRAIL”) of 100 ng/ml TRAIL. After the culture, cells were collected and subcellular fractionation was performed as described in FIG. 2. The samples of the cytosol fraction (20 ug protein) (“Cytosol”) and the equivalent proportion of heavy membrane fraction (“HM”) were subjected to Western analysis of Bax.

Row | Molecule | effect on Bax-induced apoptosis (HEK293T cells [2]) | binding to Bax (co-immunoprecipitation) (Bax [3]) | effect on UVC-irradiation-induced cell death (HEK293T cells [1]) | effect on STS-induced apoptosis (Hela cells; 200 nM STS) | also measured
1 | COC(=O)C[C@H](NC(=O)[C@H](C)NC(=O)[C@@H](NC(=O)OCc1ccccc1)C(C)C)C(=O)CF [z-VAD-fmk, reference compound] (Cbz-Val-Ala-Asp(OMe)-CH2F) | – | – | – | – | percentages of apoptotic cells (HEK293T cells [1]; HEK293T cells, UVC 200 J/m^2 in presence of 50 uM z-VAD-fmk, one day, UV alone 42±5%): 9±1%; percentages of apoptotic cells (Hela cells; 200 nM STS in presence of z-VAD-fmk): 11±3%
2 | Ku70496-609: Ku70 mutant construct encoding amino acids 496-609 of Ku70, lacking Ku80-binding domain | retained the cytoprotective activities | bound to Bax | retained the cytoprotective activities | retained the cytoprotective activities | –
3 | Ku70536-609: Ku70 mutant expressing only the C-terminal 74 amino acids of Ku70 | sufficient to block | bound to Bax | sufficient to block | sufficient to block | mitochondrial translocation of Bax induced by STS-treatment or UVC-irradiation (Bax [4]): inhibited Bax relocalization induced by UVC-irradiation; effect on UVC-irradiation-induced cell death in Bax-deficient cells (Du145 cells): did not rescue Bax-deficient cells from UVC-irradiation-induced cell death
4 | CN[C@@H]1C[C@H]2O[C@@](C)([C@@H]1OC)n1c3ccccc3c3c4c(c5c6ccccc6n2c5c31)C(=O)NC4 [STS, Staurosporine, reference compound] | – | – | – | – | percentages of apoptotic cells (Hela cells; 200 nM STS, control 3±1%): 49±4%
5 | TRAIL: cytokine, Tumor Necrosis Factor-Related Apoptosis-Inducing Ligand, human recombinant (protein, UniProt P50591 1-281, looked up) Tumor necrosis factor ligand …: MAMMEVQGGPSLGQTCVLIVIFTVLLQSLCVAVTYVYFTNELKQMQDKYSKSGIACFLKEDDSYWDPNDEESMNSPCWQVKWQLRQLVRKMILRTSEETISTVQEKQQNISPLVRERGPQRVAAHITGTRGRSNTLSSPNSKNEKALGRKINSWESSRSGHSFLSNLHLRNGELVIHEKGFYYIYSQTYFRFQEEIKENTKNDKQMVQYIYKYTSYPDPILLMKSARNSCWSKDAEYGLYSIYQGGIFELKENDRIFVSVTNEHLIDMDHEASFFGAFLVG | – | – | – | – | mitochondrial translocation of Bax (Bax [5]): did not induce the mitochondrial translocation of Bax

From patent US20070036775A1 (priority 2001, published 2007)
